Experiments:
[1] = cited from earlier work
[2] = Maximum lopinavir concentration in suspension after thermal treatment (LC-MS/MS); type: physicochemical; conditions: after thermal treatment (melt-quench), normalized to lopinavir content
Procedure: Lopinavir in suspension was measured in μg/mL.

Row | Maximum drug concentration in suspension [2] [µg/mL] | Structure (SMILES) | Log D [1]
1 | – | Nc1ccn([C@@H]2CS[C@H](CO)O2)c(=O)n1 [Lamivudine, lamivudine] | −1.1
2 | 322.00 | Cc1cccc(C)c1OCC(=O)N[C@@H](Cc1ccccc1)[C@@H](O)C[C@H](Cc1ccccc1)NC(=O)[C@H](C(C)C)N1CCCNC1=O [Lopinavir (amorphous), lopinavir] | –
3 | – | Cc1cccc(C)c1OCC(=O)N[C@@H](Cc1ccccc1)[C@@H](O)C[C@H](Cc1ccccc1)NC(=O)[C@H](C(C)C)N1CCCNC1=O [Lopinavir, lopinavir] | 4.6
4 | – | CC(C)c1nc(CN(C)C(=O)N[C@H](C(=O)N[C@@H](Cc2ccccc2)C[C@H](O)[C@H](Cc2ccccc2)NC(=O)OCc2cncs2)C(C)C)cs1 [Ritonavir, ritonavir] | 5.7

Reference: patent US20190328667A1, “DRUG-POLYMER PARTICLES WITH SUSTAINED RELEASE PROPERTIES” (University of Washington, priority 2016, published 2019)
